According to patent USRE38506E1, “Potent inducers of terminal differentiation and methods of use thereof” (Sloan-Kettering Institute for Cancer Research, priority 1991, dated 2004):

Legend:
[1] = tested on: MELC 745A-DS19 cells; test: Induction of terminal differentiation of murine erythroleukemia cells (benzidine reactivity); assay type: cell-based; details: for Optimal Conc.: Table 1; for Benzidine Reactive Cells: at optimal concentration
Experimental: MELC 745A-DS19 cells and the variants of MELC derived from this cell line, namely, the vincristine-resistant MELC V3.17 and VCR.C(2)15 cell lines (26), and the dimethylsulfoxide-resistant cell line, DR10 (39), were maintained in alpha minimal essential medium containing 10% fetal calf serum (16). Cell cultures for all experiments were initiated with cells in logarithmic growth phase (day 2 cultured cells) at a density of 10^5 cells/ml. Inducer compounds were added in the final concentrations indicated below, dissolved in culture medium without fetal calf serum unless otherwise indicated. Cell density and benzidine reactively were determined as described (16).
(§1) Commitment to terminal differentiation, characterized by limited cell division (colony size<32 cells) and accumulation of hemoglobin (benzidine reactive colonies) was assayed by a colony cloning assay using 2% methylcellulose as described (25) (see Table 1 for results). HL-60 human leukemia cells, derived from peripheral blood leukocytes of a patient with acute promyelocytic leukemia (40). Induced differentiation of HL-60 cells assayed by determining the proportion of cells that developed the capacity to reduce nitroblue tetrazolium (NBT) (41) (see Table 2 for results).

[2] = tested on: HL-60 human leukemia cells; test: Induction of Differentiation of HL-60 (NBT reduction); assay type: cell-based; details: for Optimal Conc.: HL-60, Table 2; for NBT Positive: HL-60, at optimal concentration
Experimental: as §1

Structure (SMILES) | Optimal Conc. [1] [µM] | Benzidine Reactive Cells [1] [%] | Optimal Conc. [2] [µM] | NBT Positive [2] [%]
O=C(CCCCCCC(=O)Nc1ccc(F)cc1)NO [compound 34] | 4 | 43 |  | 
N#Cc1cccc(NC(=O)CCCCCCC(=O)NO)c1 [compound 22] | 5 | 55 | 1.7 | 28
COC(=O)CCCCCCC(=O)NO [compound 13] |  | 17 |  | 
O=C(CCCCCCC(=O)Nc1ccc(F)cc1F)NO [compound 45] | 6 | 60 |  | 
O=C(CCCCCCC(=O)N1CCCCC1)NO [compound 17] |  | 30 |  | 
O=C(CCCCCCC(=O)Nc1c(F)cc(F)cc1F)NO [compound 44] | 16 | 47 |  | 
O=C(CCCCCCC(=O)Nc1c(F)c(F)c(F)c(F)c1F)NO [compound 46] | 31 | 53 |  | 
COc1ccccc1NC(=O)CCCCCCC(=O)NO [compound 51] | 8 | 36 |  | 
O=C(O)CCCCCCC(=O)Nc1ccc([N+](=O)[O-])cc1 [compound 8] |  | 32 |  | 
O=C(NO)c1ccc(C(=O)Nc2ccccc2)cc1 [compound 55] |  | 53 |  | 
CN(C)C(=O)CCCCCCC(=O)NO [compound 11] |  | 53 |  | 
O=C(O)CCCCCCC(=O)NO [compound 12] |  | 35 |  | 
Nc1ccccc1NC(=O)CCCCCCC(=O)NO [compound 28] | 20 | 54 |  | 
O=C(CCCCC(=O)Nc1ccccc1)NO [compound 1] | 80 | 70 |  | 
CC(CCCCCC(C)C(=O)N(C)C)C(=O)N(C)C (stereo not shown) [compound 66] |  | 80 |  | 
CC(CCCCC(C)C(=O)N(C)C)C(=O)N(C)C (stereo not shown) [compound 67] |  | 90 |  | 
O=C(CCCCCCC(=O)Nc1ccccc1Br)NO [compound 38] | 8 | 45 |  | 
O=C(CCCCCCC(=O)Nc1cc(F)cc(F)c1)NO [compound 50] | 2 | 73 |  | 
O=C(CCC(F)(F)CCC(=O)NO)NO [compound 70] |  | 19 |  | 
COc1ccc(NC(=O)CCCCCCC(=O)NO)cc1 [compound 53] | 6 | 37 |  | 
O=C(CCCCCCC(=O)Nc1c(F)c(F)c(F)c(F)c1F)Nc1c(F)c(F)c(F)c(F)c1F [compound 64] | 125 | 13 |  | 
O=C(CCCCCCC(=O)Nc1cccc(Cl)c1)NO [compound 30] | 2 | 33 |  | 
N#Cc1cccc(NC(=O)CCCCCCC(=O)O)c1 [compound 6] |  | 44 | 20 | 30

Structure (SMILES) | Optimal Conc. [1] [µM] | Benzidine Reactive Cells [1] [%] | Optimal Conc. [2] [µM] | NBT Positive [2] [%]
O=C(CCCCCCC(=O)Nc1c(F)ccc(F)c1F)NO [compound 43] | 31 | 53 | 2 | 20
CC(CCC(=O)NO)CCC(=O)NO [compound 68] |  | 56 |  | 
O=C(CCCCCCC(=O)Nc1cc(F)c(F)cc1F)NO [compound 42] | 8 | 36 |  | 
N#Cc1ccc(NC(=O)CCCCCCC(=O)NO)cc1 [compound 21] | 7 | 70 | 2 | 6
N#Cc1ccc(NC(=O)CCCCCCC(=O)O)cc1 [compound 7] |  | 52 | 20 | 21
O=C(CCCCCCCCC(=O)Nc1ccccc1)NO [compound 5] | 20 | 15 |  | 
O=C(CCCCCCC(=O)Nc1ccc(F)c(F)c1)NO [compound 47] | 4 | 61 |  | 
O=C(CCCCCCC(=O)Nc1ccc(OCc2ccccc2)cc1)NO [compound 35] | 4 | 20 |  | 
O=C(CCCCCCC(=O)Nc1cccc([N+](=O)[O-])c1)NO [compound 24] | 5 | 30 |  | 
O=C(CCCCCCC(=O)Nc1cc(F)cc(F)c1)Nc1cc(F)cc(F)c1 [compound 61] | 125 | 31 |  | 
O=C(CCCCCCC(=O)NCc1ccccc1)NO [compound 19] |  | 24 |  | 
COc1cccc(NC(=O)CCCCCCC(=O)NO)c1 [compound 52] | 6 | 38 |  | 
O=C(CCCCCCC(=O)Nc1cccc(C(F)(F)F)c1)NO [compound 26] | 30 | 30 | 6 | 27
N#CCc1ccc(NC(=O)CCCCCCC(=O)NO)cc1 [compound 29] | 1 | 30 | 1 | 15
N#CCc1ccc(NC(=O)CCCCCCC(=O)Nc2ccc(CC#N)cc2)cc1 [compound 58] | 50 | 25 |  | 
CONC(=O)CCCCCCC(=O)NO [compound 15] |  | 43 |  | 
O=C(CCCCCCC(=O)Nc1ccc(Br)cc1)NO [compound 40] | 1.6 | 47 |  | 
O=C(CCCCCCC(=O)Nc1ccc([N+](=O)[O-])cc1)Nc1ccc([N+](=O)[O-])cc1 [compound 65] | 25 | 14 |  | 
O=C(CCCCCCC(=O)Nc1cc(F)ccc1F)NO [compound 49] | 4 | 70 |  | 
COC(=O)c1ccc(NC(=O)CCCCCCC(=O)NO)cc1 [compound 36] | 4 | 28 | 1 | 32
CN(C(=O)CCCCCCC(=O)NO)c1ccccc1 [compound 54] |  | 40 |  | 
N#CCCCCCC(=O)NO [compound 14] |  | 30 |  | 
O=C(CCCCCCC(=O)Nc1ccccc1)NO [compound 3] |  | 70 | 1 | 21

Structure (SMILES) | Optimal Conc. [1] [µM] | Benzidine Reactive Cells [1] [%] | Optimal Conc. [2] [µM] | NBT Positive [2] [%]
[N-]=[N+]=Nc1ccc(NC(=O)CCCCCCC(=O)NO)cc1 [compound 31] | 2 | 47 | 2.5 | 7
O=C(CCCCCCC(=O)Nc1cc(F)c(F)c(F)c1)NO [compound 48] | 8 | 55 |  | 
CNC(=O)c1ccc(NC(=O)CCCCCCC(=O)NO)cc1 [compound 37] | 30 | 16 |  | 
O=C(O)CCCCCCC(=O)Nc1ccc(OCc2ccccc2)cc1 [compound 10] | 250 | 26 |  | 
O=C(CCCCCCCC(=O)Nc1ccccc1)NO [compound 4] | 20 | 8 |  | 
O=C(CCCCCC(=O)Nc1ccccc1)NO [compound 2] | 20 | 84 | 7 | 22
CC(C)(C)ONC(=O)CCCCCCC(=O)NO [compound 18] |  | 38 |  | 
O=C(CCCCCCC(=O)Nc1ccc(C(=O)NO)cc1)Nc1ccc(C(=O)NO)cc1 [compound 57] | 8 | 10 |  | 
O=C(CCCCCCC(=O)Nc1ccc(F)cc1F)Nc1ccc(F)cc1F [compound 59] | 500 | 54 |  | 
O=C(CCCCCCC(=O)Nc1cccc(F)c1)NO [compound 33] | 1 | 25 |  | 
O=C(CCCCCCC(=O)Nc1c(F)cc(F)cc1F)Nc1c(F)cc(F)cc1F [compound 63] | 125 | 35 |  | 
O=C(CCCCCCC(=O)Nc1ccccc1F)NO [compound 32] | 4 | 65 |  | 
O=C(CCCCCCC(=O)Nc1cccc(F)c1F)NO [compound 41] | 8 | 24 |  | 
O=C(CCCCCCC(=O)Nc1ccc(C(F)(F)F)cc1)NO [compound 27] | 5 | 47 |  | 
O=C(CCCCCCC(=O)Nc1c(F)cccc1F)Nc1c(F)cccc1F [compound 60] | 100 | 21 |  | 
O=C(CCCCCC(CCCCCC(=O)NO)C(=O)NO)NO [compound 69] |  | 40 |  | 
O=C(CCCCCCC(=O)Nc1ccc([N+](=O)[O-])cc1)NO [compound 25] | 0.8 | 30 | 3 | 18
O=C(O)CCCCCCC(=O)NC1CCCCC1 [compound 9] |  | 20 |  | 
O=C(CCCCCCC(=O)NC1CCCCC1)NO [compound 16] |  | 35 |  | 
O=C(CCCCCCC(=O)Nc1ccccc1Cl)NO [compound 39] | 4 | 34 |  | 
N#Cc1ccccc1NC(=O)CCCCCCC(=O)NO [compound 23] | 16 | 65 |  | 
O=C(CCCCCCC(=O)Nc1c(F)ccc(F)c1F)Nc1c(F)ccc(F)c1F [compound 62] | 250 | 28 |  | 
